# Assay results from US12110289B2, “Heterocyclic compounds, preparation methods and uses thereof” (InventisBio Co., Ltd., priority 2020, dated 2024).
# System: Lung cancer cell line NCI-H358 containing KRas G12C mutation
# Assay: Assay for cell proliferation (Cell-titer Glo, 5 days)
# Type: cell-based, human
# Details: Homo sapiens, NCI-H358, 120 h, NCI-H358, 5 days, Cell-titer Glo; read-out: IC50 (nM), Inhibition of NCI-H358 Cell Proliferation
# Procedure: One hundred fifty microliter (150 μL) of media containing 2000 cells per well were seeded into each well of a 96-well culture plate and left to attach overnight in a 37° C. incubator with 5% CO2. Diluted compounds of 0.75 μL for each well were added by liquid handler at a final concentration of 0.5% DMSO. Cells were treated for 5 days in the incubator. Cell-titer Glo (CTG) kit (Promega) was used to assess cell proliferation. Of note, 120 μL of CTG reagent was added to each well and incubated at RT for 10 minutes.
row,Compound,IC50
1,C=CC(=O)N1CCN(c2nc(=O)n(-c3c(C(C)C)nc(N(C)S(C)(=O)=O)nc3C(C)C)c3nc(-c4ccccc4F)c(F)cc23)[C@@H](C)C1 [Compound 56],27 nM
2,C=CC(=O)N1CCN(c2nc(=O)n(-c3c(C)ccnc3C(C)C)c3nc(-c4cccc5[nH]nc(N)c45)c(F)cc23)[C@@H](C)C1 [Compound 59],> 3000 nM
3,C=CC(=O)N1CCN(c2nc(=O)n(-c3c(C)cc(S(C)(=O)=O)nc3C(C)C)c3nc(-c4c(O)cccc4F)c(F)cc23)[C@@H](C)C1 [Compound 60],81.7 nM
4,C=CC(=O)N1CCN(c2nc(=O)n(-c3c(C4CC4)nc(OC)nc3C3CC3)c3nc(-c4ccccc4F)c(F)cc23)[C@@H](C)C1 [Compound 61],71.2 nM
5,C=CC(=O)N1CCN(c2nc(=O)n(-c3c(C4CC4)nc(OC)nc3C3CC3)c3nc(-c4c(O)cccc4F)c(F)cc23)[C@@H](C)C1 [Compound 62],15.9 nM
6,C=CC(=O)N1CCN(c2nc(=O)n(-c3c(C(C)C)nc4c(ncn4C)c3C)c3nc(-c4ccccc4F)c(Cl)cc23)[C@@H](C)C1 [Compound 65],17.6 nM
7,C=CC(=O)N1CCN(c2nc(=O)n(-c3c(C(C)C)cc4scnc4c3C)c3nc(-c4ccccc4F)c(Cl)cc23)[C@@H](C)C1 [Compound 66],19.9 nM
8,C=CC(=O)N1CCN(c2nc(=O)n(-c3c(C(C)C)cc4c(ncn4C)c3C)c3nc(-c4ccccc4F)c(Cl)cc23)[C@@H](C)C1 [Compound 67],46.5 nM
9,C=CC(=O)N1CCN(c2nc(=O)n(-c3c(C)cc4scnc4c3C(C)C)c3nc(-c4ccccc4F)c(Cl)cc23)[C@@H](C)C1 [Compound 68],344 nM
10,C=CC(=O)N1CCN(c2nc(=O)n(-c3cc4ncn(C)c4nc3C(C)C)c3nc(-c4ccccc4F)c(Cl)cc23)[C@@H](C)C1 [Compound 70],15.1 nM
11,C=CC(=O)N1CCN(c2nc(=O)n(-c3ccc4scnc4c3C(C)C)c3nc(-c4ccccc4F)c(Cl)cc23)[C@@H](C)C1 [Compound 71],20.1 nM
12,C=CC(=O)N1CCN(c2nc(=O)n(-c3c(C(C)C)nc4c(ncn4C)c3C)c3nc(-c4ccccc4F)c(F)cc23)[C@@H](C)C1 [Compound 73],66 nM
13,C=CC(=O)N1CCN(c2nc(=O)n(-c3c(C4CC4)nc(OC)nc3C3CC3)c3nc(-c4c(N)cccc4F)c(F)cc23)[C@@H](C)C1 [Compound 74],5.7 nM
14,C=CC(=O)N1CCN(c2nc(=O)n(-c3c(C(C)C)nc(C)nc3C(C)C)c3nc(-c4c(O)cccc4F)c(F)cc23)[C@@H](C)C1 [Compound 77],8.6 nM
15,C=CC(=O)N1CCN(c2nc(=O)n(-c3c(C(C)C)nc(C)nc3C(C)C)c3nc(-c4c(N)cccc4F)c(F)cc23)[C@@H](C)C1 [Compound 78],10.4 nM
16,C=CC(=O)N1C[C@H](C)N(c2nc(=O)n(-c3c(C4CC4)nc(OC)nc3C3CC3)c3nc(-c4c(O)cccc4F)c(F)cc23)C[C@H]1C [Compound 79],12.9 nM
17,C=CC(=O)N1C[C@H](C)N(c2nc(=O)n(-c3c(C4CC4)nc(OC)nc3C3CC3)c3nc(-c4c(N)cccc4F)c(F)cc23)C[C@H]1C [Compound 80],8.1 nM
18,C=CC(=O)N1CCN(c2nc(=O)n(-c3c(C)cc(OC)nc3C(C)C)c3nc(-c4c(O)cccc4F)c(F)cc23)[C@@H](C)C1 [Compound 81],35.9 nM
19,C=CC(=O)N1CCN(c2nc(=O)n(-c3c(C(C)C)nc(N4CCNCC4)nc3C(C)C)c3nc(-c4c(O)cccc4F)c(Cl)cc23)[C@@H](C)C1 [Compound 82],10.8 nM
20,C=CC(=O)N1CCN(c2nc(=O)n(-c3c(C(C)C)nc(N4CCNCC4)nc3C(C)C)c3nc(-c4c(N)cccc4F)c(Cl)cc23)[C@@H](C)C1 [Compound 83],5.9 nM
21,C=CC(=O)N1C[C@H](C)N(c2nc(=O)n(-c3c(C(C)C)nc(N4CCNCC4)nc3C(C)C)c3nc(-c4ccccc4F)c(Cl)cc23)C[C@H]1C [Compound 84],6.9 nM
22,C=CC(=O)N1C[C@H](C)N(c2nc(=O)n(-c3c(C4CC4)nc(N4CCNCC4)nc3C3CC3)c3nc(-c4ccccc4F)c(Cl)cc23)C[C@H]1C [Compound 85],9.7 nM
23,C=CC(=O)N1C[C@H](C)N(c2nc(=O)n(-c3c(C4CC4)nc(N4CCNCC4)nc3C3CC3)c3nc(-c4c(O)cccc4F)c(Cl)cc23)C[C@H]1C [Compound 86],8.6 nM
24,C=CC(=O)N1C[C@H](C)N(c2nc(=O)n(-c3c(C(C)C)nc(N4CCNCC4)nc3C(C)C)c3nc(-c4c(N)cccc4F)c(Cl)cc23)C[C@H]1C [Compound 87],4.1 nM
25,C=CC(=O)N1CCN(c2nc(=O)n(-c3c(C4CC4)nc(N4CCNCC4)nc3C3CC3)c3nc(-c4c(O)cccc4F)c(Cl)cc23)[C@@H](C)C1 [Compound 88],21.2 nM

row,Compound,IC50
1,C=CC(=O)N1CCN(c2nc(=O)n(-c3c(C4CC4)nc(N4CCN(C)CC4)nc3C3CC3)c3nc(-c4c(O)cccc4F)c(Cl)cc23)[C@@H](C)C1 [Compound 89],1.5 nM
2,C=CC(=O)N1CCN(c2nc(=O)n(-c3c(C4CC4)nc(N4CCN(C)CC4)nc3C3CC3)c3nc(-c4ccccc4F)c(Cl)cc23)[C@@H](C)C1 [Compound 91],7.8 nM
3,C=CC(=O)N1CCN(c2nc(=O)n(-c3c(C4CC4)nc(N4CCNCC4)nc3C3CC3)c3nc(-c4c(N)cccc4F)c(Cl)cc23)[C@@H](C)C1 [Compound 92],2.8 nM
4,C=CC(=O)N1CCN(c2nc(=O)n(-c3c(C4CC4)nc(N4CCN(C)CC4)nc3C3CC3)c3nc(-c4c(N)cccc4F)c(Cl)cc23)[C@@H](C)C1 [Compound 93],1.8 nM
5,C=CC(=O)N1C[C@H](C)N(c2nc(=O)n(-c3c(C(C)C)nc(N4CCNCC4)nc3C(C)C)c3nc(-c4ccccc4F)c(F)cc23)C[C@H]1C [Compound 94],37.5 nM
6,C=CC(=O)N1C[C@H](C)N(c2nc(=O)n(-c3c(C(C)C)nc(N4CCNCC4)nc3C(C)C)c3nc(-c4c(O)cccc4F)c(F)cc23)C[C@H]1C [Compound 95],14.6 nM
7,C=CC(=O)N1C[C@H](C)N(c2nc(=O)n(-c3c(C(C)C)nc(N4CCNCC4)nc3C(C)C)c3nc(-c4c(N)cccc4F)c(F)cc23)C[C@H]1C [Compound 96],10.8 nM
8,C=CC(=O)N1C[C@H](C)N(c2nc(=O)n(-c3c(C(C)C)nc(N4CCN(C)CC4)nc3C(C)C)c3nc(-c4c(N)cccc4F)c(F)cc23)C[C@H]1C [Compound 97],7.3 nM
9,C=CC(=O)N1C[C@H](C)N(c2nc(=O)n(-c3c(C4CC4)nc(N4CCNCC4)nc3C3CC3)c3nc(-c4c(N)cccc4F)c(F)cc23)C[C@H]1C [Compound 98],7.4 nM
10,C=CC(=O)N1C[C@H](C)N(c2nc(=O)n(-c3c(C4CC4)nc(N4CCN(C)CC4)nc3C3CC3)c3nc(-c4c(N)cccc4F)c(F)cc23)C[C@H]1C [Compound 99],5.8 nM
11,C=CC(=O)N1C[C@H](C)N(c2nc(=O)n(-c3c(C4CC4)nc(N4CCNCC4)nc3C3CC3)c3nc(-c4c(O)cccc4F)c(F)cc23)C[C@H]1C [Compound 100],14.1 nM
12,C=CC(=O)N1C[C@H](C)N(c2nc(=O)n(-c3c(C4CC4)nc(N4CCN(C)CC4)nc3C3CC3)c3nc(-c4c(O)cccc4F)c(F)cc23)C[C@H]1C [Compound 101],25.8 nM
13,C=CC(=O)N1C[C@H](C)N(c2nc(=O)n(-c3c(C4CC4)nc(N4CCNCC4)nc3C3CC3)c3nc(-c4ccccc4F)c(F)cc23)C[C@H]1C [Compound 102],37.4 nM
14,C=CC(=O)N1C[C@H](C)N(c2nc(=O)n(-c3c(C4CC4)nc(N4CCN(C)CC4)nc3C3CC3)c3nc(-c4ccccc4F)c(F)cc23)C[C@H]1C [Compound 103],47.6 nM
15,C=CC(=O)N1CCN(c2nc(=O)n(-c3c(C(C)C)nc(C4CC4)nc3C(C)C)c3nc(-c4c(N)cccc4F)c(F)cc23)[C@@H](C)C1 [Compound 105],8.8 nM
16,C=CC(=O)N1CCN(c2nc(=O)n(-c3c(C(C)C)nc(N)nc3C(C)C)c3nc(-c4c(O)cccc4F)c(Cl)cc23)[C@@H](C)C1 [Compound 106],10.2 nM
17,C=CC(=O)N1C[C@H](C)N(c2nc(=O)n(-c3c(C(C)C)nc(N)nc3C(C)C)c3nc(-c4c(O)cccc4F)c(Cl)cc23)C[C@H]1C [Compound 107],5.2 nM
18,C=CC(=O)N1CCN(c2nc(=O)n(-c3c(C(C)C)nc(N)nc3C(C)C)c3nc(-c4c(O)cccc4F)c(F)cc23)[C@@H](C)C1 [Compound 108],46.5 nM
19,C=CC(=O)N1C[C@H](C)N(c2nc(=O)n(-c3c(C(C)C)nc(N)nc3C(C)C)c3nc(-c4c(O)cccc4F)c(F)cc23)C[C@H]1C [Compound 109],12.3 nM
20,C=CC(=O)N1CCN(c2nc(=O)n(-c3c(C4CC4)nc(N)nc3C3CC3)c3nc(-c4c(O)cccc4F)c(Cl)cc23)[C@@H](C)C1 [Compound 110],10.1 nM
21,C=CC(=O)N1C[C@H](C)N(c2nc(=O)n(-c3c(C4CC4)nc(N)nc3C3CC3)c3nc(-c4c(O)cccc4F)c(Cl)cc23)C[C@H]1C [Compound 111],6.3 nM
22,C=CC(=O)N1CCN(c2nc(=O)n(-c3c(C4CC4)nc(N)nc3C3CC3)c3nc(-c4c(O)cccc4F)c(F)cc23)[C@@H](C)C1 [Compound 112],32.1 nM
23,C=CC(=O)N1C[C@H](C)N(c2nc(=O)n(-c3c(C4CC4)nc(N)nc3C3CC3)c3nc(-c4c(O)cccc4F)c(F)cc23)C[C@H]1C [Compound 113],48.5 nM
24,C=CC(=O)N1C[C@H](C)N(c2nc(=O)n(-c3c(C4CC4)nc(C)nc3C3CC3)c3nc(-c4cccc5[nH]nc(N)c45)c(F)cc23)C[C@H]1C [Compound 114],497 nM
25,C=CC(=O)N1C[C@H](C)N(c2nc(=O)n(-c3c(C4CC4)nc(N4CCNCC4)nc3C3CC3)c3nc(-c4c(N)cccc4F)c(Cl)cc23)C[C@H]1C [Compound 115],4.6 nM

# Same assay, conditions: NCI-H358, 5 days, Cell-titer Glo; read-out: IC50 (nM), Inhibition of NCI-H358 Cell Proliferation
row,Compound,IC50
1,C=CC(=O)N1CCN(c2nc(=O)n(-c3c(C)cc4c(ncn4C)c3C(C)C)c3nc(-c4ccccc4F)c(Cl)cc23)[C@@H](C)C1 [Compound 69],7.8 nM

# Same assay, conditions: NCI-H358 IC50 comparison
row,Compound,fold more potent: 2-amino-6-fluoro-phenyl compound vs. corresponding 2-fluoro-phenyl compound at R8
1,C=CC(=O)N1CCN(c2nc(=O)n(-c3c(C(C)C)nc(C)nc3C(C)C)c3nc(-c4c(N)cccc4F)c(F)cc23)[C@@H](C)C1 [Compound 78],only slightly more potent
